For 41 compounds, solubility, Activity and Kd results are on record in ChEMBL document CHEMBL3817829, “Spirooxindoles as novel 3D-fragment scaffolds: Synthesis and screening against CYP121 from M. tuberculosis” (Bioorg Med Chem Lett, 2016).

Series [1] is described as follows: Solubility of compound in 50 mM Tris-Hcl/1mM EDTA at 1 mM at pH 7.5. It is filed as physicochemical. As to conditions: buffer, pH 7.5, 1000 µM.
For series [2], the target named is T1, Mycocyclosin synthase (Mycobacterium tuberculosis, UniProt P9WPP7).
T1 sequence (P9WPP7 whole entry): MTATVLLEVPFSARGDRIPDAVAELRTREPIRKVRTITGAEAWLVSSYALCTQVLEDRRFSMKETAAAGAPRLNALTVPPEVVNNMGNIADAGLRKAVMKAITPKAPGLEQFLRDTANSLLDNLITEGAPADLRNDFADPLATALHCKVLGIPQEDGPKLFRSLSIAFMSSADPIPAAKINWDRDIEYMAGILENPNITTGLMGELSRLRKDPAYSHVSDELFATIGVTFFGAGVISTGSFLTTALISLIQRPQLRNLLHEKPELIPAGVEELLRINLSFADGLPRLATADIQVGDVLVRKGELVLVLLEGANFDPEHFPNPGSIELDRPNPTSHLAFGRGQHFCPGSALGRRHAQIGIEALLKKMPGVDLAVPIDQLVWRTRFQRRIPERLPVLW
Description: Binding affinity to Mycobacterium tuberculosis recombinant His6-tagged CYP121 expressed in Escherichia coli C41(DE3) cells assessed as change in wavelength of heme soret band at 1 mM by UV-visible spectrophotometric method. As to conditions: 1000 µM.

Series [3] concerns the target T1, Mycocyclosin synthase. Description: Binding affinity to Mycobacterium tuberculosis recombinant His6-tagged CYP121 expressed in Escherichia coli C41(DE3) cells by isothermal titration calorimetry.

pKd: −log10 of the molar value.

Turning to `CCOC(=O)/C=C1/C(=O)N(C)c2ccccc21`, the solubility entry in series [1] is “soluble”. Moreover, on Mycocyclosin synthase [2], the Activity is reported as 0 nm.

For the compound `CCOC(=O)[C@H]1[C@@H]2C=C[C@@H](C2)[C@]12C(=O)Nc1ccc(Cl)cc12`, in series [1], the solubility result is “soluble”. Besides, the Activity on Mycocyclosin synthase [2] is recorded as -1 nm.

For `CCOC(=O)[C@@H]1[C@@H]2C=C[C@@H](C2)[C@@]12C(=O)Nc1ccc(OC(F)(F)F)cc12`, the solubility result in series [1] is reported as “soluble”. Also, the Activity at Mycocyclosin synthase [2] turned out to be 0 nm.

`CCOC(=O)[C@H]1[C@@H]2C=C[C@@H](C2)[C@]12C(=O)N(C(C)=O)c1ccccc12`: the solubility entry in series [1] is “soluble”. In addition, the Activity at Mycocyclosin synthase [2] is 0 nm.

As to `CCOC(=O)/C=C1/C(=O)Nc2ccc(F)cc21`, in series [1], the solubility result was “soluble”. The Activity at Mycocyclosin synthase [2] is 0 nm.

Regarding `N#C[C@@H]1[C@@H]2C=C[C@@H](C2)[C@@]12C(=O)Nc1ccccc12`, in series [1], the solubility entry is reported as “soluble”. Also, the Activity at Mycocyclosin synthase [2] came out at 0 nm.

As to `CCOC(=O)[C@H]1[C@@H]2C=C[C@@H](C2)[C@]12C(=O)Sc1ccccc12`, in series [1], the solubility entry is on record as “soluble”. Moreover, on Mycocyclosin synthase [2], the Activity is listed as -1 nm.

`CCOC(=O)[C@@H]1[C@@H]2C=C[C@@H](C2)[C@@]12C(=O)N(C(C)=O)c1ccccc12`: in series [1], the solubility entry is “soluble”. Also, at Mycocyclosin synthase [2], the Activity came to 0 nm.

On to `N#CCC1C(=O)Nc2ccccc21` (configuration not stated), for which the solubility entry in series [1] is “soluble”. Further, the Activity on Mycocyclosin synthase [2] is given as 0 nm.

`CCOC(=O)[C@H]1[C@@H]2C=C[C@@H](C2)[C@]12C(=O)Oc1ccccc12`: in series [1], the solubility result is “soluble”. Besides, at Mycocyclosin synthase [2], the Activity is reported as -1 nm.

Turning to `CCOC(=O)[C@@H]1[C@@H]2C=C[C@@H](C2)[C@@]12C(=O)Nc1ccc(F)cc12`, in series [1], the solubility result is on record as “soluble”. The Activity at Mycocyclosin synthase [2] is given as 0 nm.

Turning to `CCOC(=O)/C=C1/C(=O)Nc2ccc([N+](=O)[O-])cc21`, in series [1], the solubility entry is “Insoluble”. The Activity result on Mycocyclosin synthase [2] was “ND(Insoluble)”.

For the compound `CCOC(=O)/C=C1/C(=O)N(C(C)=O)c2ccccc21`, the solubility entry in series [1] was “soluble”. Moreover, the Activity on Mycocyclosin synthase [2] is on record as 0 nm.

Take `CN1C(=O)C(CC#N)c2ccccc21` (configuration not stated): the solubility entry in series [1] is listed as “soluble”. For the same compound, the Activity at Mycocyclosin synthase [2] came to 0 nm.

Turning to `CCOC(=O)[C@@H]1[C@@H]2C=C[C@@H](C2)[C@@]12C(=O)Nc1ccc(Cl)cc12`, the solubility result in series [1] was “soluble”. On Mycocyclosin synthase [2], the Activity is given as 0 nm.

Take `N#C[C@H]1[C@@H]2C=C[C@@H](C2)[C@]12C(=O)Nc1ccccc12`: the solubility entry in series [1] is given as “soluble”. Also, the Activity at Mycocyclosin synthase [2] was determined as 0 nm.

For `CCOC(=O)[C@H]1[C@@H]2C=C[C@@H](C2)[C@]12C(=O)Nc1ccccc12`, the solubility result in series [1] is recorded as “soluble”. For the same compound, the Activity at Mycocyclosin synthase [2] came out at 0 nm.

With `N#C/C=C1/C(=O)Nc2ccc(OC(F)(F)F)cc21`, the solubility entry in series [1] is listed as “soluble”. On Mycocyclosin synthase [2], the Activity was 0 nm.

Take `CCOC(=O)/C=C1/C(=O)Nc2ccc(OC(F)(F)F)cc21`: the solubility result in series [1] is “soluble”. Besides, the Activity at Mycocyclosin synthase [2] is 0 nm.

As for `CCOC(=O)C1[C@@H]2C=C[C@@H](C2)C12C(=O)Nc1ccc([N+](=O)[O-])cc12` (mixture of isomers), in series [1], the solubility result is given as “Insoluble”. For the same compound, the Activity result on Mycocyclosin synthase [2] is on record as “ND(Insoluble)”.

As to `CCOC(=O)/C=C1/C(=O)Nc2ccc(Cl)cc21`, in series [1], the solubility result was “Insoluble”. On Mycocyclosin synthase [2], the Activity result is recorded as “ND(Insoluble)”.

`CCOC(=O)CC1C(=O)Oc2ccccc21` (configuration not stated): the solubility entry in series [1] was “soluble”. Besides, the Activity at Mycocyclosin synthase [2] was determined as 0 nm.

Turning to `CCOC(=O)[C@H]1[C@@H]2C=C[C@@H](C2)[C@]12C(=O)N(C)c1ccccc12`, the solubility entry in series [1] is recorded as “soluble”. Also, the Activity on Mycocyclosin synthase [2] is listed as -2 nm.

As to `CCOC(=O)[C@H]1[C@@H]2C=C[C@@H](C2)[C@]12C(=O)Nc1ccc(OC(F)(F)F)cc12`, the solubility result in series [1] is recorded as “soluble”. In addition, the Activity at Mycocyclosin synthase [2] was 0 nm.

With `CCOC(=O)[C@@H]1[C@@H]2C=C[C@@H](C2)[C@@]12C(=O)Nc1ccccc12`, the solubility result in series [1] was “soluble”. Moreover, the Activity on Mycocyclosin synthase [2] is recorded as -1 nm.

On to `CCOC(=O)/C=C1/C(=O)Nc2ccccc21`, for which, in series [1], the solubility result is “soluble”. On Mycocyclosin synthase [2], the Activity came to 0 nm.

On to `N#CC1[C@@H]2C=C[C@@H](C2)C12C(=O)Nc1ccc(OC(F)(F)F)cc12` (mixture of isomers), for which the solubility result in series [1] is given as “soluble”. Also, the Activity on Mycocyclosin synthase [2] is on record as 0 nm.

On to `CCOC(=O)[C@@H]1[C@@H]2C=C[C@@H](C2)[C@@]12C(=O)Sc1ccccc12`, for which the solubility result in series [1] was “soluble”. Also, the Activity at Mycocyclosin synthase [2] is given as 0 nm.

`CN1C(=O)/C(=C/C#N)c2ccccc21`: the solubility result in series [1] is reported as “soluble”. Moreover, on Mycocyclosin synthase [2], the Activity stood at 0 nm.

As to `CCOC(=O)/C=C1/C(=O)Oc2ccccc21`, the solubility result in series [1] is recorded as “soluble”. The Activity on Mycocyclosin synthase [2] is reported as -1 nm.

With `CCOC(=O)CC1C(=O)Nc2ccc(F)cc21` (configuration not stated), the solubility entry in series [1] is listed as “soluble”. Besides, at Mycocyclosin synthase [2], the Activity is on record as 0 nm.

Take `CCOC(=O)[C@@H]1[C@@H]2C=C[C@@H](C2)[C@@]12C(=O)N(C)c1ccccc12`: the solubility result in series [1] is on record as “soluble”. In addition, the Activity at Mycocyclosin synthase [2] is 0 nm.

With `CCOC(=O)[C@H]1[C@@H]2C=C[C@@H](C2)[C@]12C(=O)Nc1ccc(F)cc12`, in series [1], the solubility result is “soluble”. At Mycocyclosin synthase [2], the Activity came to 0 nm.

On to `Nc1ccc2nccc(-n3cncn3)c2c1`, for which the pKd at Mycocyclosin synthase [3] is 4.55. Also, the Activity at Mycocyclosin synthase [2] was 3 nm.

In the case of `CCOC(=O)/C=C1/C(=O)Sc2ccccc21`, in series [1], the solubility result is “soluble”. Also, on Mycocyclosin synthase [2], the Activity is recorded as 0 nm.

As to `N#CC1[C@@H]2C=C[C@@H](C2)C12C(=O)Nc1ccccc12` (mixture of isomers), in series [1], the solubility result was “soluble”. The Activity on Mycocyclosin synthase [2] is 0 nm.

As to `N#CCC1C(=O)Nc2ccc(OC(F)(F)F)cc21` (configuration not stated), the solubility result in series [1] was “soluble”. In addition, the Activity on Mycocyclosin synthase [2] is on record as -2 nm.

As for `CCOC(=O)[C@@H]1[C@@H]2C=C[C@@H](C2)[C@@]12C(=O)Oc1ccccc12`, the solubility entry in series [1] was “soluble”. For the same compound, the Activity at Mycocyclosin synthase [2] is 0 nm.

For the compound `N#C/C=C1/C(=O)Nc2ccccc21`, the solubility result in series [1] is recorded as “soluble”. Besides, at Mycocyclosin synthase [2], the Activity was determined as 0 nm.

`CCOC(=O)CC1C(=O)Nc2ccc(OC(F)(F)F)cc21` (configuration not stated): the solubility entry in series [1] is “soluble”. Also, the Activity on Mycocyclosin synthase [2] worked out at 0 nm.

Turning to `CCOC(=O)CC1C(=O)Nc2ccc(Cl)cc21` (configuration not stated), the solubility result in series [1] is on record as “soluble”. In addition, on Mycocyclosin synthase [2], the Activity is on record as 0 nm.
